{"source": "ChEMBL document CHEMBL4610017", "about": "“Discovery of 1,2,4-oxadiazole derivatives as a novel class of noncompetitive inhibitors of 3-hydroxykynurenine transaminase (HKT) from Aedes aegypti” (Bioorg Med Chem, 2020)", "key": {"[1]": {"assay": "Inhibition of recombinant Aedes aegypti RecLab N-terminal Trx-fused/His6-tagged 3-hydroxykynurenine transaminase H360M mutant expressed in Escherichia coli Rosetta 2 (DE3) assessed as conversion of 3-hydroxy kynurenine to xanthurenic-acid using 3-D,L hydroxy kynurenine as substrate preincubated with PLP cofactor and enzyme and 30 mins later incubated with 3-D,L-HK and measured after 5 mins by microplate reader assay"}, "[2]": {"assay": "Binding affinity to recombinant Aedes aegypti RecLab N-terminal Trx-fused/His6-tagged 3-hydroxykynurenine transaminase H360M mutant expressed in Escherichia coli Rosetta 2 (DE3) assessed as inhibition constant for enzyme-substrate complex"}, "Aedes aegypti": {"test_system": "Aedes aegypti", "assay": "Non-competitive mixed inhibition of recombinant Aedes aegypti RecLab N-terminal Trx-fused /His6-tagged 3-hydroxykynurenine transaminase H360M mutant expressed in Escherichia coli Rosetta 2 (DE3) using varying level of 3-D,L hydroxy kynurenine as substrate by Lineweaver-Burk plot analysis"}, "[3]": {"assay": "Binding affinity to recombinant Aedes aegypti RecLab N-terminal Trx-fused/His6-tagged 3-hydroxykynurenine transaminase H360M mutant expressed in Escherichia coli Rosetta 2 (DE3) assessed as inhibition constant for free form of enzyme"}, "[4]": {"assay": "Competitive inhibition of Anopheles gambiae 3-hydroxykynurenine transaminase"}}, "note": "Activity calls are given as the source filed them. The calls are words filed in the database; no cut-off is given here."}
{"smiles": "O=C(O)CCCc1nc(-c2ccc(C(F)(F)F)cc2)no1", "values": [{"measurement": "IC50", "setting": "[1]", "result": 70, "unit": "µM"}]}
{"smiles": "COc1ccc(-c2noc(CCCC(=O)O)n2)cc1", "values": [{"measurement": "IC50", "setting": "[1]", "result": 101, "unit": "µM"}]}
{"smiles": "Cc1cccc(-c2noc(CCCC(=O)O)n2)c1", "values": [{"measurement": "IC50", "setting": "[1]", "result": 54, "unit": "µM"}]}
{"smiles": "O=C(O)CCCc1nc(-c2ccc3c(c2)OCO3)no1", "values": [{"measurement": "IC50", "setting": "[1]", "result": 87, "unit": "µM"}]}
{"smiles": "O=C(O)CCCc1nc(-c2ccc(Br)cc2)no1", "values": [{"measurement": "IC50", "setting": "[1]", "result": 110, "unit": "µM"}]}
{"smiles": "O=C(O)CCCc1nc(-c2ccccc2)no1", "values": [{"measurement": "IC50", "setting": "[1]", "result": 72, "unit": "µM"}, {"measurement": "Ki", "setting": "[2]", "result": 1220, "unit": "µM"}, {"measurement": "inhibition", "setting": "Aedes aegypti", "result": "Active"}, {"measurement": "Ki", "setting": "[3]", "result": 360, "unit": "µM"}]}
{"smiles": "O=C(O)CCCc1nc(-c2ccc(Cl)c(Cl)c2)no1", "values": [{"measurement": "IC50", "setting": "[1]", "result": 64, "unit": "µM"}]}
{"smiles": "O=C(O)CCCc1nc(-c2ccc(I)cc2)no1", "values": [{"measurement": "IC50", "setting": "[1]", "result": 42, "unit": "µM"}]}
{"smiles": "O=C(O)CCCc1nc(-c2ccc(Cl)cc2)no1", "values": [{"measurement": "IC50", "setting": "[1]", "result": 294, "unit": "µM"}]}
{"smiles": "Nc1ccccc1C(=O)CCC(=O)O", "values": [{"measurement": "Ki", "setting": "[4]", "result": 300, "unit": "µM"}]}
{"smiles": "Cc1ccc(-c2noc(CCCC(=O)O)n2)cc1", "values": [{"measurement": "IC50", "setting": "[1]", "result": 88, "unit": "µM"}]}
{"smiles": "O=C(O)CCCc1nc(-c2cccc3ccccc23)no1", "values": [{"measurement": "IC50", "setting": "[1]", "result": 63, "unit": "µM"}]}
